Experimental data as given in publication PMC7575490 (Investigational New Drugs, 2020).
≈ marks a conversion by molar mass, not a printed value. One block for each compound: values may come before it.

How the values were obtained:
[1] = Part 2 three-period crossover pharmacokinetics / relative bioavailability of A, B, C; format: in vivo, human
Experimental: This was a randomized, positive control, open, single-center study with a three-cycle crossover design in healthy Chinese subjects. […] The wash-out period was 7 days. The method employed for tablet administration was consistent with that in Part 1. […] After the suspension was comsumed by subjects,the container was rinsed with 40, 80, and 80 mL of water in turn and took them down.

ErbB2 = system: ErbB2; design: method as in PMID 27902470; conditions: previous pharmacodynamic study; read-out: IC50, ErbB2 inhibition; cited from earlier work
EGFR = system: EGFR; design: method as in PMID 27902470; conditions: previous pharmacodynamic study; read-out: IC50, EGFR inhibition; cited from earlier work
[2] = cited from earlier work
[3] = Part 1 single ascending dose pharmacokinetics in healthy Chinese subjects; conditions: for AUC0-t / AUC0-∞ / Cmax / MRT0-t / MRT0-∞ / V/F / t1/2 / λz / Tmax: analyte selatinib; for AUC0-t / AUC0-∞ / Cmax / MRT0-t / MRT0-∞ / V/F / t1/2 / λz: mean ± SD; for Tmax: median (min-max)
Experimental: This was a single-center, randomized, double-blind, placebo-controlled, single ascending study involving healthy Chinese subjects. […] Investigators and subjects were blinded to the group allociations. Treatment identity was concealed by providing drug doses and placebo of identical appearance and in identical packageing. The starting dose was calculated according to the no observed adverse effect level (NOAEL) for animals.[[[25], [26]^] […] The starting dose should be 1/10 of the human NOAEL(i.e., starting dose was 50 or 72 mg). This dose was used as a threshold guide for dose escalations. To minimize risk while providing some inhibitory effects, 50 mg was recommended for use as the starting dose. Dose escalation was designed according to the modified-Fibonacci sequence. A total of 7 dose groups were included. […] Each group consisted of 50% males and females. In addition to the 500 mg group, 2 subjects in each group were administered a single dose of placebo, one for each gender. Only 2 subjects were initially enrolled in all dose groups. Follow-up subjects were enrolled on the premise that the drug was safely tolerated at the administration dose. When all subjects in the current dose group completed the trial and this dose was deemed as tolerable, the next dose group was initiated.
Tablets were administered with 240 mL of tap water at ambient temperature. Consumption of additional water was not permitted within 1 h before and after drug administration. Light meals were served at 4 and 10 h after each dose, with identical standardized diets provided across all dosing periods.
Blood samples were collected into heparinized vacutainer tubes and gently mixed. Thereafter,plasma was separated by centrifugation (3000 rpm at 4 °C for 10 min) within 1 h of sample collection and stored frozen at −80 °C prior to analysis.
A P value<0.05 was considered to indicate statistical significance. […] Further, the logarithm of the dose and the regression coefficient and its 95%CI were calculated.

[4] = Part 1, across single doses 50–500 mg
[5] = Part 1, single 50 mg dose of selatinib (n = 4)
[6] = Part 1, single 100 mg dose of selatinib (n = 10)
[7] = Part 1, single 200 mg dose of selatinib (n = 10)
[8] = Part 1, single 250 mg dose of selatinib (n = 8)
[9] = Part 1, single 300 mg dose of selatinib (n = 10)
[10] = Part 1, single 350 mg dose of selatinib (n = 6)
[11] = Part 1, single 500 mg dose of selatinib (n = 4)
[12] = Part 2, average bioequivalence, logarithmic transformation, single 500 mg dose, suspension B vs tablets A, analyte as labelled
[13] = Part 2, single 500 mg dose of A (selatinib ditosilate tablets), n = 6, analyte as labelled, mean ± SD
[14] = Part 2, single 500 mg dose of B (selatinib ditosilate dry suspension), n = 6, analyte as labelled, mean ± SD

λz ([1]; Part 2, single 500 mg dose of C (lapatinib ditosylate tablets), n = 6, mean ± SD): 5.70 ± 1.26 ×10^−2 /h
AUC0-t ([1]; male, human, in vivo, 500 mg): 5520 ± 2190 ng·h/mL
AUC(0-inf) ([1]; male, human, in vivo, 500 mg): 5540 ± 2200 ng·h/mL
Cmax ([1]; male, human, in vivo, 500 mg): 400 ± 144 ng/mL
Tmax ([1]; male, human, in vivo, 500 mg): 4.0 (2.0–5.0) h
half-life ([1]; male, human, plasma, oral, 500 mg): 12.7 ± 3.05 h
Compound: CS(=O)(=O)CCNCc1ccc(-c2ccc3ncnc(Nc4ccc(OCc5cccc(F)c5)c(Cl)c4)c3c2)o1 [lapatinib, reference compound]
aqueous solubility [2]: 7 µg/mL (≈ 12 µM)

mean selatinib peak plasma concentration [3, 4]: 69.4 to 494 ng/mL
median peak time [3, 4]: 3.5 to 4.5 h
AUC0-t [3, 5]: 969 ± 161 ng·h/mL
AUC0-∞ [3, 5]: 983 ± 165 ng·h/mL
Cmax [3, 5]: 69.4 ± 18.5 ng/mL
MRT0-t [3, 5]: 15.2 ± 3.1 h
MRT0-∞ [3, 5]: 16.4 ± 3.5 h
V/F [3, 5]: 1193.3 ± 321.8 L
t1/2 [3, 5]: 15.8 ± 2.98 h
λz [3, 5]: 4.49 ± 0.788 ×10^−2 1/h
Tmax [3, 5]: 4.0 (3.0–6.0) h
AUC0-t [3, 6]: 2664 ± 1039 ng·h/mL
AUC0-∞ [3, 6]: 2688 ± 1058 ng·h/mL
Cmax [3, 6]: 178 ± 48.8 ng/mL
MRT0-t [3, 6]: 15.9 ± 2.4 h
MRT0-∞ [3, 6]: 16.7 ± 2.8 h
V/F [3, 6]: 853.2 ± 279.8 L
t1/2 [3, 6]: 14.3 ± 2.58 h
λz [3, 6]: 4.98 ± 0.917 ×10^−2 1/h
Tmax [3, 6]: 4.0 (4.0–6.0) h
AUC0-t [3, 7]: 3708 ± 1465 ng·h/mL
AUC0-∞ [3, 7]: 3735 ± 1480 ng·h/mL
MRT0-t [3, 7]: 16.4 ± 1.7 h
MRT0-∞ [3, 7]: 17.1 ± 1.9 h
V/F [3, 7]: 1247.0 ± 522.4 L
t1/2 [3, 7]: 14.0 ± 1.79 h
λz [3, 7]: 5.01 ± 0.651 ×10^−2 1/h
Tmax [3, 7]: 4.5 (4.0–8.0) h
AUC0-t [3, 8]: 5319 ± 3248 ng·h/mL
AUC0-∞ [3, 8]: 5368 ± 3274 ng·h/mL
Cmax [3, 8]: 329 ± 211 ng/mL
MRT0-t [3, 8]: 17.1 ± 1.5 h
MRT0-∞ [3, 8]: 18.0 ± 1.8 h
V/F [3, 8]: 1393.7 ± 861.8 L
t1/2 [3, 8]: 15.3 ± 1.67 h
λz [3, 8]: 4.58 ± 0.495 ×10^−2 1/h
Tmax [3, 8]: 4.0 (4.0–5.0) h
AUC0-t [3, 9]: 5904 ± 2428 ng·h/mL
AUC0-∞ [3, 9]: 5958 ± 2461 ng·h/mL
Cmax [3, 9]: 352 ± 147 ng/mL
MRT0-t [3, 9]: 17.4 ± 2.3 h
MRT0-∞ [3, 9]: 18.3 ± 2.6 h
V/F [3, 9]: 1380.6 ± 1006.1 L
t1/2 [3, 9]: 15.1 ± 1.09 h
λz [3, 9]: 4.60 ± 0.334 ×10^−2 1/h
Tmax [3, 9]: 4.5 (4.0–6.0) h
AUC0-t [3, 10]: 7072 ± 2001 ng·h/mL
AUC0-∞ [3, 10]: 7115 ± 1995 ng·h/mL
Cmax [3, 10]: 494 ± 156 ng/mL
MRT0-t [3, 10]: 16.0 ± 2.6 h
MRT0-∞ [3, 10]: 16.7 ± 3.0 h
V/F [3, 10]: 1059.1 ± 425.1 L
t1/2 [3, 10]: 13.8 ± 2.19 h
λz [3, 10]: 5.14 ± 0.765 ×10^−2 1/h
Tmax [3, 10]: 4.5 (2.0–5.0) h
AUC0-t [3, 11]: 7142 ± 2463 ng·h/mL
AUC0-∞ [3, 11]: 7191 ± 2482 ng·h/mL
Cmax [3, 11]: 486 ± 144 ng/mL
MRT0-t [3, 11]: 15.5 ± 0.5 h
MRT0-∞ [3, 11]: 16.2 ± 0.5 h
V/F [3, 11]: 1650.8 ± 652.2 L
t1/2 [3, 11]: 14.8 ± 0.152 h
λz [3, 11]: 4.68 ± 0.0482 ×10^−2 1/h
Tmax [3, 11]: 3.5 (2.0–5.0) h
linearity of pharmacokinetics ([3]; dose range of 50–500 mg): conformed with linear pharmacokinetics
B/A% of AUC0-t [1, 12]: 101.06%
B/A% of AUC0-∞ [1, 12]: 101.09%
B/A% of Cmax [1, 12]: 94.53%
AUC0-t [1, 13]: 9280 ± 3800 ng·h/mL
AUC0-∞ [1, 13]: 9400 ± 3910 ng·h/mL
Cmax [1, 13]: 601 ± 242 ng/mL
MRT0-∞ [1, 13]: 19.2 ± 3.16 h
t1/2 [1, 13]: 15.6 ± 2.47 h
λz [1, 13]: 4.52 ± 0.682 ×10^−2 /h
Tmax ([1]; Part 2, single 500 mg dose of A (selatinib ditosilate tablets), n = 6, analyte as labelled, median (min-max)): 5.0 (4.0–6.0) h
V/F ([1]; Part 2, single 500 mg dose of A (selatinib ditosilate tablets), n = 6, mean ± SD): 1370 ± 586 L
AUC0-t [1, 14]: 8780 ± 1350 ng·h/mL
AUC0-∞ [1, 14]: 8890 ± 1410 ng·h/mL
Cmax [1, 14]: 556 ± 191 ng/mL
MRT0-∞ [1, 14]: 18.9 ± 2.87 h
t1/2 [1, 14]: 16.2 ± 1.87 h
λz [1, 14]: 4.32 ± 0.453 ×10^−2 /h
Tmax ([1]; Part 2, single 500 mg dose of B (selatinib ditosilate dry suspension), n = 6, analyte as labelled, median (min-max)): 4.5 (3.0–6.0) h
V/F ([1]; Part 2, single 500 mg dose of B (selatinib ditosilate dry suspension), n = 6, mean ± SD): 1330 ± 192 L
Compound: C[S+]([O-])CCNCc1ccc(-c2ccc3ncnc(Nc4ccc(OCc5cccc(F)c5)c(Cl)c4)c3c2)o1 (stereo not shown) [selatinib]
